Test [1] deals with MOLM-13, MV-411, ML-2 and HL-60 cells. Nature of the test: Cell viability of AML cell lines. In kind it is cell-based, human. The note with it: 6 days, 20 μM TG1, TG2 or TG3, 10 and 20 μM MYBMIM, peptide replacement every 48 h, compared to untreated control. The procedure: (§1) Cells were resuspended and plated at a concentration of 2 × 10^5 cells in 200 μl in 96-well tissue culture plates. Media with peptides was replaced every 48 h. To assess the number of viable cells, cells were resuspended in PBS and 10 µl of suspension was mixed in a 1:1 ratio with 0.4% Trypan Blue (Thermo Fisher) and counted using a hemacytometer (Hausser Scientific, Horsham, PA, USA). To assess viability using an ATP-based assay, cell viability was assessed using the CellTiter-Glo Luminescent Viability assay, according to the manufacturer’s instructions (Promega). Luminescence was recorded using the Infinite M1000Pro plate reader using integration time of 250 ms (Tecan).

Test [2] relates to MV-411 cells. Briefly: MYB ChIP-seq. It is filed as cell-based, human. Particulars: 20 µM, 6 h, 3 biological replicates. The procedure:
ChIP was performed as previously described. Briefly, cells were fixed in 1% formalin in phosphate-buffered saline (PBS) for 10 minutes at room temperature. Glycine (125 mM final concentration) and Tris-HCl pH 8 (100 mM final concentration) were added to the cells and cells were washed twice in ice-cold PBS and resuspended in sodium dodecyl sulfate (SDS) lysis buffer (1% SDS, 10 mM EDTA, 50 mM Tris–HCl, pH 8.1). Lysates were sonicated using the Covaris S220 adaptive focused sonicator to obtain 100–500 bp chromatin fragments (Covaris, Woburn, CA). Lysates containing sheared chromatin fragments were resuspended in 0.01% SDS, 1.1% Triton-X100, 1.2 mM EDTA, 16.7 mM Tris–HCl, pH 8.1,167 mM NaCl. Lysates and antibody-coupled beads were incubated over night at 4 °C. […] Libraries were sequenced on the Illumina HiSeq 2500 instruments, with 30 million 2 × 50 bp paired reads.
For ChIP-seq analysis, reads were quality and adapter trimmed using ‘trim_galore’ before aligning to human genome assembly hg19 with bwa mem using the default parameters. Aligned reads with the same start position and orientation were collapsed to a single read before subsequent analysis. Density profiles were created by extending each read to the average library fragment size and then computing density using the BEDTools suite. Enriched regions were discovered using MACS 2.0 and scored against matched input libraries. […]

For another test, the system named is MV-411 and MOLM-13 cells. Briefly: qRT-PCR of BCL2 mRNA expression. It is filed as cell-based, human. Particulars: 20 μM, 6 h. The procedure:
RNA was isolated using Trizol reagent according to the manufacturer’s instructions (Life Technologies). Complementary DNA was synthesized using the SuperScript III First-Strand Synthesis system according to the manufacturer’s instructions (Invitrogen). Quantitative real-time PCR was performed using the KAPA SYBR FAST PCR polymerase with 20 ng template and 200 nM primers, according to the manufacturer’s instructions (Kapa Biosystems, Wilmington, MA, USA). PCR primers are listed in Supplementary Table 4. Ct values were calculated using ROX normalization using the ViiA 7 software (Applied Biosystems).
On the technique in general: Quantitative PCR measures a nucleic acid by following its amplification.

A further test relates to MOLM-13 cells. Nature of the test: RNA-seq transcriptome profiling. The note with it: MOLM13 cells, 20 µM, 6 h. In kind it is cell-based, human. The procedure:
Reads were quality and adapter trimmed using “trim_galore” before aligning to human assembly hg19 with STAR v2.5 using the default parameters. Coverage and post-alignment quality were assessed using the Picard tool CollectRNASeqMetrics (http://broadinstitute.github.io/picard/). Read count tables were created using HTSeq v0.6.1. Normalization and expression dynamics were evaluated with DESeq2 using the default parameters.

The test system of test [3] is MV-411 cells. Nature of the test: Growth and survival of MV-411 cells with ectopic BCL2 (MIG-BCL2) or empty MIG vector. It is filed as cell-based, human. The note with it: 20 μM, p = 0.003. The procedure:
as §1
The MIG-BCL2 vector was packaged using pUMVc and pCMV-VSVG vectors in HEK 293T cells and the FuGENE 6 transfection reagent, according to manufacturer’s instructions (Promega). Virus supernatant was collected at 48 and 72 h post transfection, pooled, filtered and stored at −80 °C. Cells were transduced with virus particles at a multiplicity of infection of 1 by spin inoculation for 90 min at 3500 rpm at 35 °C in the presence of 8 μg/ml hexadimethrine bromide. Two days after transduction, cells were isolated using fluorescence-activated cell sorting (FACSAria III, BD Bioscience, San Jose, CA, USA).

The target of the next test is T1, CBP KIX domain (Mus musculus, UniProt P45481).
T1 construct: Bacterial expression pGEX-KIX vector encoding the KIX domain of CBP; GST (N, cleaved yes); made in house; host or cells: E. coli BL21(DE3)
Briefly: Microscale thermophoresis binding of FITC-conjugated peptides to purified recombinant CBP KIX domain. Particulars: 50 mM sodium phosphate, 150 mM NaCl, 0.01% NP-40, pH 5.5, room temperature, ± standard error mean of three biological replicates. The procedure: BL21(DE3) cells (Invitrogen) transformed with pGEX-KIX plasmid were induced at 37 °C with isopropyl β-D-1-thiogalactopyranoside for 3 h. Cells were lysed in 50 mM Tris–HCl pH 7.3, 150 mM NaCl, 0.1% Tween-20, 1 mM DTT, 5 mM EDTA, supplemented with protease inhibitors described above and sonicated for ten minutes (15 s on, 15 s off, 40% amplitude) using the Misonix probe sonicator (Qsonica, Newtown, CT). Lysate was cleared by centrifugation for 1 h at 21,800 × g at 4 °C. Cleared lysate was incubated with 4 ml glutathione agarose resin slurry (GoldBio) for 1 h at 4 °C to capture GST-KIX. Resin was washed four times with 50 mM Tris–HCl pH 7.4, 150 mM NaCl. KIX domain was cleaved from GST by incubation of resin-bound GST-KIX with 160 U thrombin (GE Healthcare) overnight at room temperature. Resin was centrifuged at 500 × g for 5 min. […] Cleaved KIX was purified using a linear gradient of 50 mM to 1 M NaCl by cation exchange chromatography using MonoS 5/50 GL column (GE Healthcare). […] Binding of purified recombinant KIX with FITC-conjugated peptides was measured using Monolith NT.115 (NanoTemper Technologies). Assays were conducted in 50 mM sodium phosphate, 150 mM NaCl, 0.01% NP-40, pH 5.5. […] MST measurements were recorded at room temperature for 10 s per capillary using fixed IR-laser power of 80% and LED excitation power of 40–50%.
Background: MST reads how a fluorescent partner responds to local heating, with and without ligand.

Molecules are shown by their SMILES. Non-standard residues stand in square brackets, D forms with d. Residues, ends and D or L forms follow the SMILES beside them.

T1 sequence (P45481 586-665 limits assumed): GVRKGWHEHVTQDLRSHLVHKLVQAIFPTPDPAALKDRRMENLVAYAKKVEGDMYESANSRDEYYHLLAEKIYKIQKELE

In the case of `CC[C@@H](C)[C@@H](NC(=O)[C@@H](CCCCN)NC(=O)[C@@H](CCC(=O)O)NC(=O)[C@@H](CC(C)C)NC(=O)[C@@H](CCC(=O)O)NC(=O)[C@@H](CC(C)C)NC(=O)[C@@H](CC(C)C)NC(=O)CNC(=O)[C@@H](CCSC)NC(=O)[C@@H](CO)NC(=O)[C@H](NC(=O)[C@@H](CCC(=O)O)NC(=O)[C@@H](CC(N)=O)NC(=O)CNC(=O)[C@@H](CC(C)C)NC(=O)[C@@H](CCCCN)NC(C)=O)[C@H](C)O)C(=O)NCC(=O)N[C@H](CCCCN)C(=O)NCC(=O)NCC(=O)N[C@H](CCCNC(=N)N)C(=O)N[C@H](CCCNC(=N)N)C(=O)N[C@H](CCCNC(=N)N)C(=O)N[C@H](CCC(N)=O)C(=O)N[C@H](CCCNC(=N)N)C(=O)N[C@H](CCCNC(=N)N)C(=O)N[C@H](CCCCN)C(=O)N[C@H](CCCCN)C(=O)N[C@H](CCCNC(=N)N)C(=O)NCC(=O)N[C@H](Cc1ccc(O)cc1)C(N)=O` [TG3] (Ac-[dK][dL]G[dN][dE][dT][dS][dM]G[dL][dL][dE][dL][dE][dK][dI]G[dK]GG[dR][dR][dR][dQ][dR][dR][dK][dK][dR]G[dY]-NH2), in test [1], the “Growth of AML cell lines” value is “inactive”. The “MYB complexes bound to promoters and enhancers eliminated” value in the test on MV-411 cells [2] was “inactive”. The BCL2 expression downregulation result with MV-411 and MOLM-13 cells was “not”. Further, the “Changes in gene expression as compared to mock-treated cells” value in the test with MOLM-13 cells is reported as “no significant changes in gene expression”. The “Cell growth and survival of mock-treated and MIG empty vector control transduced MV-411 cells” value with MV-411 cells [3] is “inactive”. The Kd (usually the free concentration of one partner at which half of the binding sites on the other are occupied at equilibrium, for simple one-to-one binding) at CBP KIX domain came out at 113 ± 36.6 µM.

These data come from paper PMC5760651, “Peptidomimetic blockade of MYB in acute myeloid leukemia” (Nature Communications, 2018).
